# Measurements taken from patent US6197746A, “Method of using secretin for treating autism” (priority 1999, dated 2001).
# “Also recorded” adds a separate entry of the source.
# How the values were obtained:
# brain perfusion = assay: SPECT scan of the brain after secretin infusion (Example 1); format: in vivo, human
# Procedure: Further, the patient's secretin cells prior to receiving treatment, measured at a level of 9, are far below the normal limit in the range of 20-70.
# (§1) Biomedical changes were also measured in the patient.
# abnormal opioid peptides = conditions: after the secretin infusion; autistic children that responded to casein free and gluten free diet; cited from earlier work
# pancreas = assay: Pancreatic juice release after intravenous secretin during upper gastrointestinal endoscopy (Example 1); format: in vivo, human; conditions: immediately after 2 CU/kg i.v. over one minute; usual rate 1-2 ml/min
# Procedure: (§2) When the patient was […], the secretin was administered by way of an infusion as part of an upper gastrointestinal endoscopy. The secretin was used in this diagnostic procedure at the request of the patient's parents, one of which is an inventor of the present invention. The secretin used in this procedure is known as Secretin-Ferring available from Ferring Laboratories, Inc., Suffern, N.Y. (See Appendix A). The secretin was dissolved in a […] solution of sodium chloride and administered in a dosage of 2 clinical units (CU) per kilogram (kg) body weight by intravenous injection over one minute. (I.E. 30 IU IV for approximately 15 kilograms of body weight.)
# (§3) The diagnostic tests performed on the patient during this procedure also indicated gastric inflammation. […] The following Table I summarizes the improvements observed in the patient within 3 weeks after the infusion of secretin.
# [1] = system: serotonin levels; rubella titers; assay: Blood tests after secretin infusion (Example 1); format: in vivo, human
# Procedure: as §1
# symptoms of autism [2] = assay: Symptoms and behaviour of a child with symptoms of autism after secretin infusion (Example 1, Table I); format: in vivo, human
# Procedure: The present invention will be better understood from the following examples which are given by way of illustration and not by way of limitation. The patient, the same in both examples, is a child with symptoms of autism.
# as §2, §3
# symptoms of autism [3] = assay: Daily transdermal secretin with DMSO in a child with symptoms of autism (Example 2); format: in vivo, human
# Procedure: At the time of this treatment, the patient was […]. Secretin was administered transdermally using pharmaceutical grade dimethyl sulfoxide (DMSO) (generally 99.9% pure) available from Clinic Service Co., Box 2512, Hemet Calif. 92543. The secretin (Secretin-Ferring) was administered daily in a dosage of about 75 CU over a five day period (i.e., about 15 CU daily) For each treatment, about 4 drops of DMSO were placed onto the skin of the patient, about 15 CU of the crystalline secretin was placed onto the DMSO, and the composition was rubbed into the skin.
# [4] = within weeks after the treatment
substance,measurement,setting,value
secretin,perfusion of the right posterior parietal and right temporal lobes (blood flow in the brain),brain perfusion,improved; also recorded: increased
same,abnormal opioid peptides,abnormal opioid peptides,disappeared
same,amount of pancreatic juice being released,pancreas,approximately 10 ml/min
same,"measles, mumps and rubella antibodies",[1]; after the secretin administration in Example 1,reduction
same,rubella titers,"[1]; after the treatment, dropped from 5.8",2.3
same,serotonin levels,"[1]; blood, after the treatment",rise and increase
same,rate of the patient's progress,symptoms of autism [2]; at about 5 weeks after first infusion,appeared to decrease
same,results of second and third infusions,"symptoms of autism [2]; second about 9 months after first, third about three months after second",achieved the same results
same,limited diet preferences,symptoms of autism [2]; within 3 weeks after infusion,No Change
same,water consumption,symptoms of autism [2]; within 3 weeks after infusion,approximately 50 cups per day
same,bowel movements,"symptoms of autism [2]; within 3 weeks after infusion, before: abnormal",Normal bowel movements
same,excessive water consumption,"symptoms of autism [2]; within 3 weeks after infusion, before: approximately 50 cups per day",no change
same,potty training,"symptoms of autism [2]; within 3 weeks after infusion, before: diapers only",Completely potty trained
same,imitation of commands,"symptoms of autism [2]; within 3 weeks after infusion, before: did not imitate",Will imitate almost any multi-step
same,"""spinning"" episodes","symptoms of autism [2]; within 3 weeks after infusion, before: infrequent (1-2 times/week)",No spinning episodes
same,eye contact,"symptoms of autism [2]; within 3 weeks after infusion, before: minimal eye contact",75 % of the time
same,connections made between language and objects,"symptoms of autism [2]; within 3 weeks after infusion, before: no apparent connections",Many connections made between new
same,flash cards,"symptoms of autism [2]; within 3 weeks after infusion, before: no flash cards",40-50 flash cards
same,focus on requested tasks,"symptoms of autism [2]; within 3 weeks after infusion, before: no focus",Will sit and watch carefully
same,interest in drawing,"symptoms of autism [2]; within 3 weeks after infusion, before: no interest",Wants to draw constantly
same,response to request for gestures,"symptoms of autism [2]; within 3 weeks after infusion, before: no response",Responds to all kinds of things
same,sentences,"symptoms of autism [2]; within 3 weeks after infusion, before: no sentences",Short sentences
same,words,"symptoms of autism [2]; within 3 weeks after infusion, before: two words",100's of words
same,sleeping problems,"symptoms of autism [2]; within 3 weeks after infusion, before: up numerous times each night",Has slept through almost every night
same,interaction with videos,"symptoms of autism [2]; within 3 weeks after infusion, before: watch videos","gets ""involved"" interactively"
same,chronic abnormal bowel movements,"symptoms of autism [2]; within days after the administration, no change of diet",became normal
same,eye contact,symptoms of autism [2]; [4],able to make normal eye contact
same,language,symptoms of autism [2]; [4],language appeared for the first time in two years
same,other behavioral and developmental problems,symptoms of autism [2]; [4],improved remarkably
same,autistic behavioral symptoms when the daily dose is stopped,symptoms of autism [3]; transdermal daily dose stopped,autistic behavioral symptoms return
same,language,"symptoms of autism [3]; transdermal daily, within a period of about 6 months",progressed to spontaneous and conversational language
